Laboratory results as given in PubChem BioAssay (NCI).
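Cells were grown in 96-well plates and exposed to each compound for 48 hours at five concentrations; endpoints were interpolated linearly between bracketing concentrations, or set to the highest concentration if not reached. GI50: concentration for 50% inhibition of growth. TGI marks complete inhibition of growth.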

Key:
Experiment in all cases: DTP human tumour cell line panel, 48 h
[1] = test system: 786-0 renal
[2] = test system: A498 renal
[3] = test system: A549 NSCLC
[4] = test system: ACHN renal
[5] = test system: BT-549 breast
[6] = test system: CAKI-1 renal
[7] = test system: CCRF-CEM leukemia
[8] = test system: COLO 205 colon
[9] = test system: DU-145 prostate
[10] = test system: EKVX NSCLC
[11] = test system: HCC-2998 colon
[12] = test system: HCT-116 colon
[13] = test system: HCT-15 colon
[14] = test system: HL-60(TB) leukemia
[15] = test system: HOP-62 NSCLC
[16] = test system: HOP-92 NSCLC
[17] = test system: HS 578T breast
[18] = test system: HT29 colon
[19] = test system: IGROV1 ovarian
[20] = test system: K-562 leukemia
[21] = test system: KM12 colon
[22] = test system: LOX IMVI melanoma
[23] = test system: M14 melanoma
[24] = test system: MALME-3M melanoma
[25] = test system: MCF7 breast
[26] = test system: MDA-MB-231 breast
[27] = test system: MDA-MB-435
[28] = test system: MOLT-4 leukemia
[29] = test system: NCI-H226 lung
[30] = test system: NCI-H23 lung
[31] = test system: NCI-H460 lung
[32] = test system: NCI-H522 lung
[33] = test system: NCI/ADR-RES ovarian
[34] = test system: OVCAR-3 ovarian
[35] = test system: OVCAR-4 ovarian
[36] = test system: OVCAR-8 ovarian
[37] = test system: PC-3 prostate
[38] = test system: RPMI-8226 leukemia
[39] = test system: RXF 393 renal
[40] = test system: SF-268 CNS
[41] = test system: SF-295 CNS
[42] = test system: SF-539 CNS
[43] = test system: SK-MEL-2 melanoma
[44] = test system: SK-MEL-28 melanoma
[45] = test system: SK-MEL-5 melanoma
[46] = test system: SK-OV-3 ovarian
[47] = test system: SN12C renal
[48] = test system: SNB-19 CNS
[49] = test system: SNB-75 CNS
[50] = test system: SR leukemia
[51] = test system: T-47D breast
[52] = test system: TK-10 renal
[53] = test system: U251 CNS
[54] = test system: UACC-257 melanoma
[55] = test system: UACC-62 melanoma
[56] = test system: UO-31 renal

With `COc1ccc(C(O)c2cc3c(N)c(C(=O)Nc4cccc(OC)c4)sc3nc2C)cc1` (configuration not stated) the GI50 [1] was 1140 nM, the TGI [1] was 2790 nM and the GI50 [2] was over 50000 nM. It also gave a TGI [2] of over 50000 nM, a GI50 [3] of 5460 nM and a TGI [3] of over 50000 nM. It also gave a GI50 [4] of 1210 nM, a TGI [4] of 3150 nM and a GI50 [5] of 1230 nM. The TGI [5] was 3220 nM, the GI50 [6] was 1530 nM and the TGI [6] was 5270 nM. The GI50 [7] was 1310 nM, the TGI [7] was 4640 nM and the GI50 [8] was 1750 nM. For the same molecule, the TGI [8] was over 50000 nM, the GI50 [9] was 2070 nM and the TGI [9] was over 50000 nM. The GI50 [10] was 1600 nM, the TGI [10] was over 50000 nM and the GI50 [11] was 871 nM. For the same molecule, the TGI [11] was 1630 nM, the GI50 [12] was 242 nM and the TGI [12] was 953 nM. The GI50 [13] was 1000 nM, the TGI [13] was 2510 nM and the GI50 [14] was 1350 nM. For the same molecule, the TGI [14] was over 50000 nM, the GI50 [15] was 1940 nM and the TGI [15] was over 50000 nM. For the same molecule, the GI50 [16] was over 50000 nM, the TGI [16] was over 50000 nM and the GI50 [17] was 1650 nM. It also gave a TGI [17] of 4670 nM, a GI50 [18] of 1360 nM and a TGI [18] of 3700 nM. For the same molecule, the GI50 [19] was 1170 nM, the TGI [19] was 3460 nM and the GI50 [20] was 1200 nM. It also gave a TGI [20] of 7200 nM, a GI50 [21] of 1030 nM and a TGI [21] of 2410 nM. It also gave a GI50 [22] of 879 nM, a TGI [22] of 1640 nM and a GI50 [23] of 1280 nM. It also gave a TGI [23] of 4650 nM, a GI50 [24] of 1910 nM and a TGI [24] of 28900 nM. The GI50 [25] was 289 nM, the TGI [25] was over 50000 nM and the GI50 [26] was 1390 nM. The TGI [26] was 3970 nM, the GI50 [27] was 1110 nM and the TGI [27] was 2180 nM. The GI50 [28] was 1430 nM, the TGI [28] was 4590 nM and the GI50 [29] was 4010 nM. The TGI [29] was 36800 nM, the GI50 [30] was 1200 nM and the TGI [30] was 3290 nM. It also gave a GI50 [31] of 1970 nM, a TGI [31] of over 50000 nM and a GI50 [32] of 1430 nM. For the same molecule, the TGI [32] was 4940 nM, the GI50 [33] was 1380 nM and the TGI [33] was 3960 nM. It also gave a GI50 [34] of 1260 nM, a TGI [34] of 3230 nM and a GI50 [35] of 2170 nM. It also gave a TGI [35] of over 50000 nM, a GI50 [36] of 1570 nM and a TGI [36] of over 50000 nM. For the same molecule, the GI50 [37] was 1150 nM, the TGI [37] was 3040 nM and the GI50 [38] was 174 nM. It also gave a TGI [38] of 809 nM, a GI50 [39] of 1010 nM and a TGI [39] of 2310 nM. For the same molecule, the GI50 [40] was 1770 nM, the TGI [40] was 37900 nM and the GI50 [41] was 1420 nM. It also gave a TGI [41] of 4500 nM, a GI50 [42] of 1260 nM and a TGI [42] of 3030 nM. For the same molecule, the GI50 [43] was 49800 nM, the TGI [43] was over 50000 nM and the GI50 [44] was 1580 nM. It also gave a TGI [44] of 4940 nM, a GI50 [45] of 1690 nM and a TGI [45] of 5420 nM. For the same molecule, the GI50 [46] was 11500 nM, the TGI [46] was over 50000 nM and the GI50 [47] was 1240 nM. The TGI [47] was 3380 nM, the GI50 [48] was 1990 nM and the TGI [48] was over 50000 nM. It also gave a GI50 [49] of 12200 nM, a TGI [49] of over 50000 nM and a GI50 [50] of 301 nM. For the same molecule, the TGI [50] was 7510 nM, the GI50 [51] was 3830 nM and the TGI [51] was over 50000 nM. For the same molecule, the GI50 [52] was 5990 nM, the TGI [52] was over 50000 nM and the GI50 [53] was 1340 nM. It also gave a TGI [53] of 7370 nM, a GI50 [54] of 1740 nM and a TGI [54] of over 50000 nM. It also gave a GI50 [55] of 1160 nM, a TGI [55] of 3070 nM and a GI50 [56] of 838 nM. For the same molecule, the TGI [56] was 1720 nM.
